Data as given in ChEMBL document CHEMBL5724558, “Image-based profiling of drug vulnerabilities in CRC organoids” (2024).
Values joined by “and” are separate entries in the source; they are usually repeats but may differ in a detail not shown here. Equal entries are not always repeated.

Columns and labels:
Format in all cases: functional, Homo sapiens
Set-up in all cases: dose or concentration left out as unconfirmed
Colon cancer organoid [1] = experiment: (§1) Image-based profiling of donated chemical probes and chemogenomic kinase set in O06 CRC organoid. Image analysis is performed on the sum area metric, and the data were normalized to the DMSO control. After imaging the organoid viability is measured using the OneGloEX Luciferase Assay System. The normalized viability data and sum area are reported.
Colon cancer organoid [2] = experiment: as §1, with “O09” for “O06”
Colon cancer organoid [3] = experiment: as §1, with “O21” for “O06”

Structure (SMILES) | Cell Viability (Colon cancer organoid [1]; Replication number 1) | Cell Viability (Colon cancer organoid [1]; Replication number 2) | Cell Viability (Colon cancer organoid [2]; Replication number 1) | Cell Viability (Colon cancer organoid [2]; Replication number 2) | Cell Viability (Colon cancer organoid [3]; Replication number 1) | Cell Viability (Colon cancer organoid [3]; Replication number 2)
CNc1nc(-c2ccc3c(N)n[nH]c3c2)cc(N2C[C@@H](C(=O)NC3CCCCC3)CC[C@H]2C)n1 | 59.7664% and 83.0769% | 75.2742% and 90.8217% | 19.6659% and 24.7593% | 39.1039% and 41.4354% | 64.6112% and 105.857% | 53.2272% and 96.363%
COc1cccc2c1c(O)c(C(=O)N(C)c1ccc(C(F)(F)F)cc1)c(=O)n2C [TASQUINIMOD] | 48.5879% and 75.1409% | 109.678% and 108.736% | 111.782% and 95.2859% | 96.4426% and 87.5198% | 88.1859% and 108.165% | 81.4636% and 102.566%
CCOc1cc(N2CCC(O)CC2)ccc1Nc1ncc2c(n1)N(C1CCCC1)CCC(=O)N2C | 54.2917% and 71.4425% | 45.2272% and 91.5167% | 71.8666% and 49.1195% | 54.8924% and 49.401% | 101.764% and 118.746% | 133.409% and 125.513%
O=C(NOC[C@H](O)CO)c1ccc(F)c(F)c1Nc1ccc(I)cc1F [MIRDAMETINIB] | 3.1671% and 12.2187% | 2.358% and 7.568% | 6.019% and 17.678% | 3.596% and 12.9307% | 22.725% and 32.892% | 19.7018% and 35.9842%
CC(C)NC(=O)N1CC[C@H](NC2=Nc3cc(F)ccc3N(CC(F)F)c3ccc(Cl)cc32)C1 | 76.3577% and 106.595% | 67.4805% and 91.0899% | 65.8757% and 85.8718% | 77.8958% and 74.4882% | 89.5308% and 79.3405% | 112.883% and 89.5415%
CC1=CC(C)=[N+]2C1=C(CCCCc1cn(CC(=O)N3CCc4nc(NC(=O)[C@H]5CCN(C#N)C5)sc4C3)nn1)c1c(C)cc(C)n1[B-]2(F)F | 105.892% and 120.972% | 115.912% and 117.492% | 63.7608% and 86.8451% | 67.8399% and 91.9905% | 110.953% and 108.585% | 96.9264% and 89.225%
N#CC1(c2ccccn2)CCN(Cc2cc(C(=O)N3CCCC3)c(=O)n3ccccc23)CC1 [MSD-M1PAM-NC] | 114.688% and 98.8664% | 108.691% and 97.5493% | 69.2847% and 91.5343% | 101.66% and 96.3521% | 100.616% and 90.5784% | 99.0735% and 86.6757%
CN(C)CCCOc1ccc(-c2cc(NCCCn3cccn3)nc(S(C)(=O)=O)n2)cc1 | 164.335% and 134.819% | 201.31% and 140.998% | 107.413% and 76.7388% | 121.884% and 89.5154% | 93.735% and 87.002% | 96.544% and 91.8258%
Nc1nc(NCc2ccccc2)nc(-c2cccc(CO)c2)n1 [ZINC32547799] | 89.5578% and 102.51% | 72.3824% and 71.8405% | 98.3992% and 98.4744% | 101.098% and 100.714% | 95.0079% and 87.3045% | 101.984% and 101.971%
Cc1ccc2nc(CNCCCOc3ccccc3)cc(O)c2c1 [UCSF924] | 116.607% and 123.644% | 89.7333% and 84.3345% | 89.1468% and 105.602% | 80.3683% and 95.5591% | 109.248% and 108.585% | 100.134% and 96.363%
CSc1cccnc1N1CCN(Cc2nc3ccccc3[nH]2)CC1 [A-769] | 94.9192% and 98.1265% | 78.7963% and 95.9431% | 134.459% and 96.2835% | 149.547% and 115.371% | 84.3952% and 76.2613% | 99.9235% and 83.6735%
FC(F)(F)c1ccc2c(c1)nc(-c1cccnc1)n2C1CC1 [MSD-CYP11B2-Negative-control] | 82.4588% and 96.4372% | 50.7409% and 62.2297% | 82.6005% and 103.914% | 111.8% and 104.679% | 89.0845% and 95.4893% | 78.0159% and 105.031%
CC#CC(=O)N1CCC[C@H]1c1nc(-c2ccc(C(=O)Nc3ccccn3)cc2)c2c(N)nccn12 [ACALABRUTINIB] | 108.483% and 104.159% | 68.1537% and 91.7224% | 72.6716% and 83.0294% | 131.144% and 94.2129% | 90.1303% and 116.516% | 93.0581% and 134.149%
CNCCN1CCC(OCc2ccccc2)CC1 | 119.99% and 102.443% | 115.41% and 100.611% | 67.0161% and 91.8083% | 91.8334% and 102.344% | 118.771% and 101.11% | 99.3774% and 100.418%
COc1ccc(Cn2ccc3ccc(C(=O)NO)cc32)cc1 | 150.267% and 98.5772% | 160.829% and 118.056% | 110.805% and 94.5904% | 117.665% and 84.3839% | 103% and 112.867% | 100.715% and 96.6587%
COc1cc(OC)cc(-c2noc(N3CCN(C)C4(CCN(c5ccccc5)CC4)C3)n2)c1 | 202.541% and 143.275% | 168.695% and 116.861% | 101.833% and 98.7635% | 122.499% and 95.7871% | 113.13% and 104.05% | 103.365% and 96.1217%
N#Cc1cnc(Nc2cc(NC[C@H]3CNCCO3)c(C(F)(F)F)cn2)cn1 [SRA-737] | 47.9437% and 94.589% | 63.1754% and 83.4961% | 93.3475% and 86.0215% | 90.1274% and 73.6966% | 21.4207% and 61.8815% | 26.4159% and 74.8471%
O=C(NCC(=O)N1CCCC1)Nc1ccc2cnccc2c1 | 118.335% and 117.664% | 145.589% and 95.8311% | 77.5338% and 89.49% | 125.69% and 99.4932% | 118.981% and 107.577% | 82.9956% and 91.8258%
CC(C)(O)CNc1ncc(-c2ccnc(Nc3ccnc(Cl)c3)n2)c(CC2CC2)n1 | 43.9028% and 71.665% | 60.8585% and 108.175% | 50.3707% and 42.8861% | 72.1392% and 56.6897% | 40.3035% and 73.5889% | 46.8315% and 88.665%
C[C@@H]1CN(c2cc(-c3nn(C)c4ccc(OC5(C)CC5)cc34)ncn2)C[C@H](C)O1 [MLi-2-NC] | 109.32% and 103.981% | 134.588% and 115.132% | 104.615% and 76.2145% | 63.1554% and 89.3757% | 92.869% and 94.89% | 95.8024% and 129.082%
CCOc1cn(-c2ccc(F)cc2C)nc1C(=O)Nc1ccc(Oc2ccnc3cc(OC)c(OC)cc23)c(F)c1 | 102.988% and 123.299% and 120.024% and 109.723% | 127.856% and 122.776% and 99.2168% and 90.0771% | 106.171% and 88.0162% and 65.7353% and 75.3% | 96.6425% [middle of 4 runs] | 103.157% and 102.021% and 78.4654% and 79.1638% | 106.966% and 96.7254% and 100.887% and 106.513%
CCC(=O)N[C@H]1CC[C@@H](C(=O)N(C)c2ccc(-c3nc4ccccc4o3)cc2)C1 [BI 99179] | 21.7258% and 60.1874% | 30.1767% and 66.0942% | 70.0522% and 46.8277% | 52.7511% and 35.3414% | 140.434% and 105.951% | 114.409% and 97.9592%
O=C(Nc1cnc(Oc2ccc(F)cc2)nc1)N1CCc2ncccc2[C@@H]1c1ccc(F)cc1 [BAY-899] | 95.5159% and 118.785% | 100.58% and 108.361% | 90.6617% and 101.288% | 105.766% and 101.705% | 121.151% and 99.8545% | 98.3369% and 80.5574%
CNc1nc(Nc2cnn([C@H]3CCN(C4COC4)C[C@@H]3F)c2Cl)ncc1C(F)(F)F | 126.64% and 127.973% | 90.3478% and 106.324% | 95.686% and 93.751% | 102.903% and 81.5252% | 107.524% and 121.533% | 104.61% and 94.4225%
Cc1cc2c(cc1N1C(=O)c3cccc4c(CCCO)ccc(c34)C1=O)n(C)c(=O)n2C | 68.0185% and 75.3826% | 71.5666% and 43.0165% | 57.3322% and 75.8114% | 118.076% and 83.8137% | 93.3541% and 102.286% | 93.8629% and 86.4558%
CCCOc1ccn2c(C(C)=O)cc(-c3ccccc3S(C)(=O)=O)c2c1 | 138.616% and 118.389% | 149.88% and 120.685% | 82.358% and 82.5348% | 234.066% and 124.865% | 106.031% and 126.388% | 99.7688% and 110.084%
CO[C@@H](C)c1c(Nc2ccc([C@@H](N(C)C(=O)C3CCS(=O)(=O)CC3)C(F)(F)F)cc2)cnc2cc(Cl)nn12 [NVS-MALT1-C] | 48.3396% and 100.567% | 78.0608% and 112.446% | 63.1352% and 96.7863% | 75.29% and 89.0167% | 68.6015% and 94.398% | 97.4598% and 109.109%
